The target in assay [1] is T1, human dopamine D5 receptor (Homo sapiens, UniProt P21918).
T1 construct: expressed in transfected cells; host or cells: HEK293T cells, transient transfection
Put plainly: Competition binding, [3H]SCH23390, HEK293T membranes.

The target in assay [2] is T2, human adrenergic β2 receptor (Homo sapiens, UniProt P07550).
T2 construct: expressed in transfected cells; host or cells: HEK293T cells, transient transfection
Put plainly: Competition binding, [3H]CGP12177, HEK293T membranes. The conditions noted are these: ± SD of two experiments.

T1 sequence (P21918 whole entry): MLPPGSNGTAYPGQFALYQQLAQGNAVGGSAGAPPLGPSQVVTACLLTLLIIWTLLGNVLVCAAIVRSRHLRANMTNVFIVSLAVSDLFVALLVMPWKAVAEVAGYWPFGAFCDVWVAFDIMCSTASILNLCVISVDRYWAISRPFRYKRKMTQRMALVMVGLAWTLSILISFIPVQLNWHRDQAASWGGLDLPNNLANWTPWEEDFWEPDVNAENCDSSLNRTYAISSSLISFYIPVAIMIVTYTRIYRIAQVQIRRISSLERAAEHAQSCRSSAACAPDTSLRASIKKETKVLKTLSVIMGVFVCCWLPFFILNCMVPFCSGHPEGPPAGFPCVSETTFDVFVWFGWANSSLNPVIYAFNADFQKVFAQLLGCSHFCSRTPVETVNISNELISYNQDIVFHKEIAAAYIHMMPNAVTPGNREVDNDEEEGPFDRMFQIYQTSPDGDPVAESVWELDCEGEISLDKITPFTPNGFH
T2 sequence (P07550 whole entry): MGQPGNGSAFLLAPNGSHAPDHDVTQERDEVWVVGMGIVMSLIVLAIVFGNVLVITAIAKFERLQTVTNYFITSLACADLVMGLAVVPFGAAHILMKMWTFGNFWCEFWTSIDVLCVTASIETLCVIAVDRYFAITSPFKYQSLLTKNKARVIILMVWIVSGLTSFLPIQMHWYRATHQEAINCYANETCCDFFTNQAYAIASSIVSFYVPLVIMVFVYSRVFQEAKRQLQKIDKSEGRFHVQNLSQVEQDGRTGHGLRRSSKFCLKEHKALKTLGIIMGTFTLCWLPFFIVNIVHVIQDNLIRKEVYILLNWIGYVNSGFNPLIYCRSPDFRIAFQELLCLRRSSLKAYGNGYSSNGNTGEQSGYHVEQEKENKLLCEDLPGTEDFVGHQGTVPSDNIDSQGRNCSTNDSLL

As for `CCc1ccc(OC)c(C(=O)NC[C@@H]2CCCN2CC)c1O` [dechloroeticlopride, (S)-3-Ethyl-N-[(1-ethylpyrrolidin-2-yl)methyl]-2-hydroxy-6-methoxybenzamide, reference compound], the inhibition constant (Ki) in assay [1] is 49 ± 17 µM; in assay [2] it was 8.9 ± 3 µM.
